Measured values: US20210038559A1, “CANNABINOIDS AND DERIVATIVES FOR PROMOTING IMMUNOGENICITY OF TUMOR AND INFECTED CELLS” (priority 2018, published 2021)

Columns and labels:
[1] = test system: MHC-I expression on COLO 205 cells; assay: Phytocannabinoid MHC-I induction on COLO 205 cells, 0-100 μM, 48 hours
Procedure: FIG. 4. Cell surface MHC class I expression was measured by flow cytometry (MFI).
Phytocannabinoids were tested for MHC-I-inducing activity on COLO 205 cells. Each cannabinoid was tested at a concentration range of 0-100 μM. […] “ND” indicates not determined.

MHC class I, A9 cells = format: cell-based, mouse; conditions: 48 hours
Procedure: FIG. 6. Cannabigerol treatment of A9 cells for 48 hours at various doses increases MHC class I protein expression, as determined by flow cytometry. […] IFN γ treatment was at 5.832×10^−6 in two mL of media.
The effect of cannabigerol on MHC class I in A9 cancer cells were determined as follows. A9 cells (1×10^6) were plated onto a 6 well plate (Corning) in two mL of media. A9 cells were treated after 24 hours at various concentrations of Cannabigerol, 5.832×10^4 nM IFN gamma or DMSO vehicle for 48 hours. Cells were then harvested from the plate as per protocol and half of the cells were checked for MHC class I expression levels using flow cytometry. The Anti-mouse H2 KB APC antibody (Biolegend) was used at 1:200 in FACS buffer (2% FBS in PBS).

[2] = test system: CD8+ T cells from OT1 mice co-cultured with A9 cells; assay: OT1 CD8+ T cell proliferation (CFSE) in co-culture with […]-loaded A9 cells; format: cell-based, mouse
Procedure: FIG. 8. A proliferation experiment using CD8^+ T cells from […]-primed OT1 mice in response to […] peptide presented on MHC class I of A9 cells. A9 cells were treated with 0.055 μM of Cannabigerol, 5.832×10^−6 nM of IFN gamma positive control. The negative control is named “CFSE and […] CD8^+ T cells”. T cells were labeled with CFSE proliferation dye, which is reduced within the progeny cells as the generations progress.
FIG. 9 MHC Class I expression of A9 cells associated with CD8^+ T cells from […]-primed OT. A9 cells were treated with 0.055 μM of Cannabigerol, or 5.832×10^4 nM of IFN gamma.
A cytolytic assay was performed as follows. A9 cells (1×10^6) were plated onto a 6 well plate in two mL of RPMI media (Advanced RPMI-1640 Medium (Gibco), 100 U/mL of Penicillin-Streptomycin (P+S) (Thermofisher), 1% L-Glutamine (Gibco), and 10% FBS). A9 cells were treated with either Cannabigerol 0.055 μM, 5.832×10^4 nM IFN gamma, or 1% DMSO vehicle. After 24 hours, […] OVA Peptide ([…]) (Genscript), was added to the A9 cells. Following an additional 24 hours, CD8^+ T cells were collected from OT1 mouse spleens. […] An extra well of untreated A9 cells was counted and used as a standard count. CD8^+ T cells were counted and then treated with CFSE (Biolegend) per manufacture protocol, before being co-cultured with A9 cells to a 1:1 ratio or a 1:5 ratio. […]

[3] = test system: MHC class I expression, metastatic mouse tumor cell line; assay: Indirect screen for compounds that increase MHC class I expression in a metastatic mouse tumor cell line; format: cell-based
From the text: An assay has been developed to indirectly screen for compounds that increase MHC class I expression in a metastatic mouse tumor cell line (U.S. patent Ser. No. 14/548,726, Jefferies et. al., published 28 May 2015). This assay identified numerous compounds that increased MHC expression. […] In addition, some other cannabinoids induce expression of MHC class I on tumor cells.

CCCCCc1cc(O)c(C/C=C(\C)CCC=C(C)C)c(O)c1 [Example 1, 2-[(2E)-3,7-dimethyl-2,6-octadien-1-yl]-5-pentyl-1,3-benzenediol]
EC50 ([1]; Homo sapiens, COLO 205, 48 h): 40 µM | Fold Induction ([1]; MHC-I expression on COLO 205 cells, 0-100 μM, 48 hours, relative to control cells treated only with buffer): 2.7 Fold | upregulation of class I MHC (MHC class I, A9 cells; 0.0275 μM): less upregulation | class I MHC expression (MHC class I, A9 cells; 0.055 μM, relative to vehicle (DMSO), p value <0.0001, one-way ANOVA): significant increase | MHC class I on the A9 cells associated with the OT1 T cells ([2]; A9 cells treated with 0.055 μM): increase | proliferation of OT1 CD8+ T cells ([2]; A9 cells treated with 0.055 μM for 48 hours prior to co-culture): increased proliferation | activity in the MHC class I screening assay [3]: significant activity
